Each structure is given as a SMILES string. Where “and” joins values, the source holds several entries; their conditions need not be identical. Identical values can stand only once.

Assay [1] has as its target MELK (Homo sapiens, UniProt Q14680). Put plainly: Z′-LYTE biochemical assay, MELK inhibition. Particulars: 25 uM ATP concentration; read-out: MELK IC50 as determined by Z′-LYTE biochemical assay. Set-up: purchased Life Technologies. How it is done: The invention also provides methods for inhibiting MELK, comprising contacting MELK with a compound of the invention in an amount effective to inhibit MELK. In certain embodiments, the method is conducted in vitro. In certain embodiments, the method is conducted in vivo. Inhibition of MELK can be determined by the Z′-LYTE® biochemical assay from Life Technologies (Life Technologies Z′-LYTE® Screening Protocol and Assay Conditions, June 2012, incorporated herein by reference).
Generally, IC50 against MELK was determined by Z′-LYTE® biochemical assay and are measured in nM at 25 uM ATP concentration.

Assay [2] has as its system MDA-MB-468 cells. Put plainly: Live imaging of chromosome alignment in MDA-MB-468 GFP-H2B cells. In kind it is cell-based, human. Particulars: 1 μM. How it is done:
MDA-MB-468 cells stably expressing GFP-H2B were treated with vehicle control, or 1 μM THZ-4-63-1, and immediately subjected to live imaging. Time given in hours:minutes, relative to the starting point of treatment. […] Each dot represent an individual mitotic event.
To utilize this novel compound for probing the roles of MELK in mitosis, we first treated asynchronized U2OS cells with THZ-4-63-1 (1 μM), and subjected the cells for live-cell imaging. The fusion protein GFP-Histone H2B was stably introduced into the cells to facilitate observing chromosome dynamics^2,7. […] MELK inhibition also delayed mitotic progression in human breast cancer cell line, MDA-MB-468 (FIG. 6). […] Together, these findings indicate that MELK is novel regulator for the normal progression of mitosis, and that inactivation or depletion of MELK induces a metaphase-like arrest in cancer cells.

The target in assay [3] is PLK1 (Homo sapiens, UniProt P53350). The assay is described as follows: Recombinant mitotic kinase assay, PLK1. In kind it is biochemical. As to conditions: recombinant kinases. How it is done: […] assays were performed with recombinant protein of the indicated mitotic kinase (left) and AMPK family kinases (right) in the presence of THZ-4-63-1. […] Cells were treated with nocodazole (100 ng/ml) for 18 h or not treated (Asyn., asynchronous). Nocodazole-arrested mitotic cells (M) were isolated via shake-off. The attached cells enriched in G2 phase (G2) were harvested. A portion of the mitotic cells were washed off nocodazole and released into G1 phase after 4 hours of incubation (G1). […] In Panel D, mitotic lysates were prepared from the indicated cells, and treated with λ-phosphatase at 30° C. In Panel E, nocodazole-arrested mitotic cells were treated with increasing concentration of THZ-4-63-1 for 30 min. Cell lysates were subjected to immunoblotting.
To discover a selective MELK inhibitor, a few molecule scaffolds with the potential of binding to MELK were identified, including 2,4-disubstituted pyrimidines and benzonaphthyridinones. […] To investigate if THZ-4-63-1 confers selective inhibition on MELK, we tested its effect on other mitotic kinases. In assays using recombinant kinases, MELK kinase activity was 20-fold more sensitive to THZ-4-63-1, than that of Aurora A, Aurora B, CDK1, or PLK1 (FIG. 1B).

Assay [4] concerns MDA-MB-468. The assay is described as follows: Cell growth with paclitaxel combination in MDA-MB-468. It is filed as cell-based, human. As to conditions: THZ-4-63-1 33.3 or 66.6 nM plus paclitaxel 2 nM. On the procedure:
Mitotic cells were treated with THZ-4-63-1 at indicated concentrations for 4 h. Cells were collected for immunoblotting. Panel B contains time-lapse images of U2OS-(H2B-GFP) cells treated with THZ-4-63-1 (5 μM). […] Panel C contains blots showing proteasome-mediated degradation of Cyclin B1, Aurora B and MELK in THZ-4-63-1-induced mitotic slippage. Mitotic cells were treated as in Panel A with THZ-4-63-1 (5 μM), or MG132 (10 μM), or both for 4 h. Panel D contains a graph showing quantification of cell proliferation in the indicated breast cancer cell lines, which were treated with vehicle control or THZ-4-63-1 for one week (Top) and also contains bright-field images acquired from control cells or cells treated with THZ-4-63-1 (111 nM) (Bottom). […] Cells were treated with indicated drugs, and harvested in ten days for quantification of cell growth. The bold curve depicts the theoretic prediction of an additive action between paclitaxel and THZ-4-63-1.
Because microtubule-targeting chemotherapy is the mainstay of treatment for many types of cancer including basal-like breast cancer, we asked if MELK inhibition could combine with drugs that impair microtubule dynamics. […]

The test system of assay [5] is mitotic cells. The assay is described as follows: Mitotic cell death, time-lapse imaging. It is filed as cell-based. On the procedure: (§1) U2OS-GFP-H2B cells were treated with vehicle control (0.02% DMSO, v/v) or 1 μM THZ-4-63-1, and subjected to live imaging. Time is given in hours:minutes, relative to the initial time of drug treatment. The arrow points to chromosomes that haven't incorporated into the metaphase plate. […] MDA-MB-468 cells expressing tet-on-shMELK and GFPH2B cells were treated with doxycycline for three days, before subjected to live imaging. Panel D contains images of immunoblotting of lysates from cells treated as in Panel C. Panel E contains images showing mitotic cell death in a cell treated with THZ-4-63-1. The table indicates the quantification of cell death events. Panel F contains images showing that treatment with THZ-4-63-1 impairs chromosome alignment. Cells were treated with DMSO control, or THZ-4-63-1 (5 μM) for 4 hours, followed by MG132 (10 μM) for 1 h. Cells were fixed and stained with anti-CREST, anti-α-tubulin, and DAPI to visualize chromosomes and kinetochores. The histogram indicates the quantifications of cells in metaphase with misaligned chromosomes.
Perturbation of normal mitotic kinetic can lead to various cellular outcomes including cell death.

Assay [6] relates to U2OS cells. The assay is described as follows: Live-cell imaging of mitotic progression in U2OS-GFP-H2B cells. In kind it is cell-based, human. As to conditions: 1 μM, asynchronized U2OS cells; control 31.1 min. How it is done:
as §1
To utilize this novel compound for probing the roles of MELK in mitosis, we first treated asynchronized U2OS cells with THZ-4-63-1 (1 μM), and subjected the cells for live-cell imaging. The fusion protein GFP-Histone H2B was stably introduced into the cells to facilitate observing chromosome dynamics^2,7. […]

Chain of MELK (Q14680 whole entry): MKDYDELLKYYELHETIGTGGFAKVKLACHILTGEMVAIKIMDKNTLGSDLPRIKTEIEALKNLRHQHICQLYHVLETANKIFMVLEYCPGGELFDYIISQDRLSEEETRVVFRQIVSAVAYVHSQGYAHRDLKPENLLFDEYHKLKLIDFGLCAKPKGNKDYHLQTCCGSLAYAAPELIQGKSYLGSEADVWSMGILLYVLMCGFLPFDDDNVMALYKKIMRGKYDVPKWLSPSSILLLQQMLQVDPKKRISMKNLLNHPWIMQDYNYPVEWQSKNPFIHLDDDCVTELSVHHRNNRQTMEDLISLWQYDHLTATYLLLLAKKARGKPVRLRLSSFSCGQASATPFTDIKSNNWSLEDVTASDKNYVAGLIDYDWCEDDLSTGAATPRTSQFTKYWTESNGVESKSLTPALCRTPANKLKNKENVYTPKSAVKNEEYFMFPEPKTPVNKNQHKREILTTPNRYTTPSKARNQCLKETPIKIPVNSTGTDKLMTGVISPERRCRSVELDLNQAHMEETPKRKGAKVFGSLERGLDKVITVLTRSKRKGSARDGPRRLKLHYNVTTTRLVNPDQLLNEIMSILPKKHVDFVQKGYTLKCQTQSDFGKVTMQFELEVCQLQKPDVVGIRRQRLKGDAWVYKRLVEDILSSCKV
Chain of PLK1 (P53350 whole entry, species assumed): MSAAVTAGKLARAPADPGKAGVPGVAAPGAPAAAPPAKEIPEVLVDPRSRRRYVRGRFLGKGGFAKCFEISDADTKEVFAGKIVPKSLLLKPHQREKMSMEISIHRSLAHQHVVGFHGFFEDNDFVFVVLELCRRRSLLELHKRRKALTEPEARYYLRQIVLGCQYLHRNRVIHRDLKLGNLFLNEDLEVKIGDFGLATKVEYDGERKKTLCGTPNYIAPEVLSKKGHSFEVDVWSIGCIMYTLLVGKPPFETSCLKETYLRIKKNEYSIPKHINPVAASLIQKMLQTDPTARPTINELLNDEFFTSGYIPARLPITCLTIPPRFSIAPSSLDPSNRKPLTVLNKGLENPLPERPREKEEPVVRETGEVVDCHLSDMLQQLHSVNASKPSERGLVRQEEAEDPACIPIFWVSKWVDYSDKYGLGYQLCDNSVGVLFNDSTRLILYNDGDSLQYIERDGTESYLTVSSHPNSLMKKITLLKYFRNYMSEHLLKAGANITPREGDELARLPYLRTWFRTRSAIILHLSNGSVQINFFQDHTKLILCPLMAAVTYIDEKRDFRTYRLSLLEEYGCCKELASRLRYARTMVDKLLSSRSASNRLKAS

Turning to `CN(C)Cc1ccc(-n2c(=O)ccc3cnc4ccc(-c5cc(Cl)c(O)c(Cl)c5)cc4c32)cc1` [THZ-4-63-1], in assay [1], the IC50 is 0.0108 µM and 0.0105 µM. The Chromosome alignment entry in assay [2] was “inhibits chromosome alignment”. In addition, the “MELK kinase activity more sensitive than that of PLK1” value in assay [3] came out at 20 fold. The “Inhibition of cell growth, combined with paclitaxel” value in assay [4] is listed as ≥ 80%. Moreover, the Mitotic cell death entry in assay [5] is listed as “efficiently induced mitotic cell death”. For the same molecule, the “Time from nuclear envelope breakdown (NEBD) to anaphase, mean” value in assay [6] is 66.4 min.

What is called IC50 is the concentration needed to halve the response being measured.

These data come from US10544138B2, “Tricyclic kinase inhibitors of MELK and methods of use” (Dana-Farber Cancer Institute, Inc., priority 2015, dated 2020).
